# Data as given in publication PMC8695447, “Novel Small Molecules Capable of Blocking mtRAS-Signaling Pathway” (Frontiers in Oncology, 2021).
# Assays:
# Format in all cases: cell-based
# [1] = system: Ba/F3-parental cells; assay: Anti-proliferation assay (CellTiter Glo) on Ba/F3-parental; details: Mus musculus, BaF3; 72 h treatment; with 10 ng/ml IL-3; average with SD (n = 3, duplicate)
# Procedure: (§1) Ba/F3-parental, OCI-AML3, U397 cells were purchased from DSMZ. MDA-MB-231, HCT-116, AsPC-1, H358, HT-29, SW480, and DU-145 cells were obtained from KCLB. MDA-MB-468 cells were obtained from ATCC. All cells were maintained in RPMI with 10% FBS and antibiotics. Cells were grown in a humidified 5% CO2 incubator at 37°C. Ba/F3-parental cells were grown in the presence of 10 ng/ml IL-3. NRAS-G12D or NRAS-G12V transformed Ba/F3 cell lines (Ba/F3-NRAS-G12D, and Ba/F3-NRAS-G12V, respectively) were cultured without IL-3, which were established by the procedure described as previously ([30]).
# (§2) Approximately 3.0 × 10^3 cells/well were seeded in a 96-well cell culture plate. After stabilization, 1/3 serially diluted compound in DMSO was treated to the cell. […] All GI50 values were obtained in duplicate with three independent assays and averages with standard deviation are presented.
# [2] = system: HT-29 (KRAS-Q61L); assay: Anti-proliferation assay on HT-29; details: Homo sapiens, HT-29; 72 h treatment; average with SD (n = 3, duplicate)
# Procedure: as §1, §2
# [3] = system: MDA-MB-468 (KRAS, NRAS-wt); assay: Anti-proliferation assay on MDA-MB-468; details: for GI50: Homo sapiens, MDA-MB-468, 72 h treatment, average with SD (n = 3, duplicate); for antiproliferative activity fold lower on MDA-MB-468 cells than on HCT-116 harboring KRAS-G13D mutation: MDA-MB-468 versus HCT-116; for times less active on MDA-MB-468 cells harboring wtRAS than on SW480 cells with KRAS-G12V mutation: MDA-MB-468 versus SW480
# Procedure: as §1, §2
# [4] = system: H358 (KRAS-G12C); assay: Anti-proliferation assay on H358; details: Homo sapiens, NCI-H358; 72 h treatment; average with SD (n = 3, duplicate)
# Procedure: as §1, §2
# [5] = system: cleaved PARP in Ba/F3-NRAS-G12D and Ba/F3-NRAS-G12V cells; assay: Western blot, cleaved PARP in Ba/F3 cells transformed with mtRAS; details: 1 μM, 24 h
# Procedure: Approximately 1 × 10^6 cells per well were seeded in a 6-well cell culture plate. After cell adhesion, each compounds were treated for 2 h with indicated concentration and conducted brief washing twice by ice-cold PBS. Cells were lysed by NP40 buffer (50 mM Tris–HCl pH 7.4, 1% NP40, 2 mM EDTA, 150 mM NaCl) in the presence of protease inhibitor cocktail (Roche, #11873580001) and phosphatase inhibitor cocktail (Roche, #04906837001). Each sample was loaded with same amount of total protein and separated by SDS-PAGE gel. After transferred to nitrocellulose membrane, blocking with 5% skim milk (in TBS/T) was followed. […] Chemiluminescence signals were detected by ImageQuant™ LAS 4000 (GE Healthcare).
# Figure 3 (A, B) The effects of SIJ1795 and SIJ1772 on apoptosis induction in Ba/F3 cells transformed with mtRAS (NRAS-G12D and NRAS-G12V). […] (C) Apoptotic cell population (annexin V-positive) was determined by flow cytometry analysis (n = 3). […] Statistical significance was calculated by a one-way ANOVA analysis (**p < 0.01, ***p < 0.001).
# [6] = system: MDA-MB-231 (KRAS-G13D); assay: Anti-proliferation assay on MDA-MB-231; details: Homo sapiens, MDA-MB-231; 72 h treatment; average with SD (n = 3, duplicate)
# Procedure: as §1, §2
# [7] = system: Ba/F3-NRAS-G12D and Ba/F3-NRAS-G12V cells; assay: Flow cytometry apoptosis analysis (annexin V/PI), Ba/F3 mtRAS cells; details: 1 μM, 24 h
# Procedure: For apoptosis analysis, cells (1 × 10^6 cells per sample) were incubated with each compounds for 24 h. Cells were subjected to brief ice-cold PBS washing and subjected to staining with Alexafluor488-conjugated annexin V (Thermo Fisher, A13201), and propidium iodide (PI, Thermo Fisher, P3560). Thereafter, apoptotic cells were classified by FACS Accuri™ C6 Plus (BD Biosciences). Debris and unstained cells and were excluded by gating.
# Figure 3 (A, B) The effects of SIJ1795 and SIJ1772 on apoptosis induction in Ba/F3 cells transformed with mtRAS (NRAS-G12D and NRAS-G12V). Cells were treated with 0.1 and 1 μM of SIJ1795, SIJ1772, and GNF-7 for 24 h Western blot analysis was conducted to evaluate the cleaved PARP and level. GAPDH was used as a loading control. (C) Apoptotic cell population (annexin V-positive) was determined by flow cytometry analysis (n = 3). Cells were treated with 1 μM of indicated compounds for 24 h. Statistical significance was calculated by a one-way ANOVA analysis (**p < 0.01, ***p < 0.001).
# [8] = system: SW480 (KRAS-G12V); assay: Anti-proliferation assay on SW480; details: Homo sapiens, SW480; 72 h treatment; average with SD (n = 3, duplicate)
# Procedure: as §1, §2
# [9] = system: Ba/F3 cells transformed with mtRAS (NRAS-G12D and NRAS-G12V) and cancer cells harboring mtRAS; assay: Flow cytometry cell cycle analysis (PI); details: 1 μM, 24 h
# Procedure: For cell cycle analysis, cells (1 × 10^6 cells per sample) were incubated with each compounds for 24 h. Cells were subjected to brief ice-cold PBS washing and fixed with 70% EtOH for 1 h at −20°C. Cells were stained with PI/RNase staining solution (Cell signaling, #4087) and incubated 30 min at room temperature in a dark condition. Stained cells were subjected to flow cytometry analysis. Debris and unstained cells and were excluded by gating.
# Figure 5 The effects of SIJ1795 and SIJ1772 on cell cycle arrest against in (A, B) Ba/F3 cells transformed with mtRAS (NRAS-G12D and NRAS-G12V) and (C, D) cancer cells harboring mtRAS. Cells were treated with 1 µM of SIJ1795, SIJ1772, and GNF-7 for 24 h. Cells were stained by PI and analyzed the percentage of cell cycle phase by flow cytometry.
# [10] = system: HCT-116 (KRAS-G13D); assay: Anti-proliferation assay on HCT-116; details: Homo sapiens, HCT-116; 72 h treatment; average with SD (n = 3, duplicate)
# Procedure: as §1, §2
SMILES,GI50 [1] [nM],GI50 [2] [nM],GI50 [3] [nM],antiproliferative activity fold lower on MDA-MB-468 cells than on HCT-116 harboring KRAS-G13D mutation [3] [fold],times less active on MDA-MB-468 cells harboring wtRAS than on SW480 cells with KRAS-G12V mutation [3] [times],GI50 [4] [nM],cleaved PARP level in Ba/F3-NRAS-G12D and Ba/F3-NRAS-G12V cells [5],GI50 [6] [nM],apoptotic cells population (annexin V/PI) in Ba/F3-NRAS-G12D and Ba/F3-NRAS-G12V cells [7],GI50 [8] [nM],cell cycle arrest [9],GI50 [10] [nM]
"Cc1ccc(NC(=O)c2cccc(C(F)(F)F)c2)cc1N1Cc2cnc(Nc3cnn(C4CCN(S(C)(=O)=O)CC4)c3)nc2N(C)C1=O [SIJ1772, N-(4-Methyl-3-(1-methyl-7-((1-(1-(methylsulfonyl)piperidin-4-yl)-1H-pyrazol-4-yl)amino)-2-oxo-1,4-dihydropyrimido[4,5-d]pyrimidin-3(2H)-yl)phenyl)-3-(trifluoromethyl)benzamide]",1920 ± 86,192 ± 94,44900 ± 6260,1182,101,125 ± 17,increased cleaved PARP level,58 ± 1,increase of apoptotic cells,447 ± 173,G0/G1 arrest was induced,38 ± 28
"CCN1CCN(c2cccc(Nc3ncc4c(n3)N(C)C(=O)N(c3cc(NC(=O)c5cccc(C(F)(F)F)c5)ccc3C)C4)c2)CC1 [SIJ1795, N-(3-(7-((3-(4-Ethylpiperazin-1-yl)phenyl)amino)-1-methyl-2-oxo-1,4-dihydropyrimido[4,5-d]pyrimidin-3(2H)-yl)-4-methylphenyl)-3-(trifluoromethyl)benzamide]",2020 ± 419,154 ± 42,15700 ± 5310,476,64,203 ± 12,increased cleaved PARP level,53 ± 8,increase of apoptotic cells,245 ± 12,G0/G1 arrest was induced,33 ± 6
